# Laboratory results: US10364255B2, “Heteroaromatic compounds as Vanin inhibitors” (Boehringer Ingelheim International GmbH, priority 2017, dated 2019)
# Where two headings read alike, the source gives them in different places.
# Experiments:
# [1] = target: FLAG-tagged Vanin-1 (AA 22-493, T26I) (Homo sapiens (Human), UniProt O95497, T26I); experiment: Vanin-1 enzymatic assay (pantothenic acid formation, RapidFire Mass Spectrometry); assay type: biochemical; conditions: read-out: VNN 1 IC50
# Method: The test compounds are dissolved in 100% DMSO at a concentration of 10 mM and in a first step diluted in DMSO to a concentration of 5 mM, followed by serial dilution steps in 100% DMSO. Dilution factor and number of dilution steps may vary according to needs. Typically 8 different concentrations by 1:5 dilutions are prepared, a further intermediate dilutions of the substances is carried out with assay buffer resulting in 1% final DMSO concentration in the assay.
# Method 1): 0.15 nM of FLAG-tagged Vanin-1 (AA 22-493, T26I, produced internally) and test compounds are incubated at room temperature for 15 minutes in assay buffer (1 mM DTT, 0.0025% Brij-35, 50 mM HEPES, pH7.5). 3 μM D-Pantethine (Sigma, Cat#P2125-5G) in assay buffer is added and incubated for additional 30 minutes at room temperature. Reaction is stopped by adding equal volume of stop solution as the reaction mixture to reach 5 nM Nevirapine (as an internal standard) and 0.5% TFA. Assay plates are centrifuged for 2 minutes and the formation of pantothenic acid is detected by RapidFire Mass Spectrometry (mobile phase A: 0.1% formic acid in water, mobile phase B: 100% methanol) using graphitic carbon cartridge (Agilent Cat #G9206A).
# Method 2): 0.1 nM of FLAG-tagged Vanin-1 (AA 22-493, T26I, produced internally) and test compounds are incubated at room temperature for 20 minutes in assay buffer (1 mM DTT, 0.0025% Brij-35, 50 mM HEPES, pH7.5). D-Pantethine (Sigma, Cat#P2125-5G) in assay buffer is added (final concentration 3 μM) and incubated for additional 30 minutes at room temperature. Total assay volume typically is 40 μl but might be adjusted according to needs. Reaction is stopped by adding equal volume of stop solution as the reaction mixture to reach 100 nM HD-pantothenic acid (as an internal standard) and 1% TFA. Assay plates are centrifuged for 2 minutes and the formation of pantothenic acid is detected by RapidFire Mass Spectrometry (mobile phase A: 0.1% formic acid and 0.01% trifluoroacetic acid in water; mobile phase B: 47.5% acetonitrile, 47.5% methanol, 0.1% formic acid and 0.01% trifluoroacetic acid in water) using a C18, 12 μL cartridge (Agilent Cat #G9205A).
# The values given in Table I result from measurements of one or more samples. In case of multiple measurements the geometric mean values determined by method 1 and/or method 2 are given.
# human whole blood = experiment: Human Whole Blood assay (HWB; pantothenic acid formation from D-Pantethine); assay type: cell-based; conditions: 10 μM D-Pantethine, 30 minutes at room temperature, geometric mean if multiple measurements
# Method: 250 μl human whole blood and 7 μl pre-diluted compound in RPMI 1640 media are incubated at room temperature for 15 minutes on an orbital shaker. 10 μl of D-Pantethine (Sigma, Cat#P2125-5G) is added, resulting in 10 μM final concentration, for additional 30 minutes incubation at room temperature. The reaction is stopped by placed on ice for 5 minutes. Assay plates are centrifuged at 1800 rpm at 4° C. for 10 minutes. 80 μl of plasma is mixed with 80 μl of ice-cold acetonitrile and is left on ice for 5 minutes. The reaction mixture is centrifuged at 4000 rpm for 10 min at 4° C. 50 μl of the supernatant is mixed with 150 μl of ice-cold H2O. The above solution is mixed with equal volume of stop solution to reach 5 nM Nevirapine (as an internal standard) and 0.4% TFA. The mixture is centrifuged at 4000 rpm for 10 minutes. The formation of pantothenic acid is detected by RapidFire Mass Spectrometry (mobile phase A: 0.1% Formic acid in water, mobile phase B: 100% Methanol) using graphitic carbon cartridge (Agilent Cat #G9206A). Please see Table I for results. The values given in Table I result from measurements of one or more samples. In case of multiple measurements the geometric mean values are given.
# [2] = VNN1-assay method 1: 0.15 nM Vanin-1, 15 min preincubation, 3 μM D-Pantethine, geometric mean if multiple measurements
# [3] = VNN1-assay methods 1 + 2: geometric mean of values determined by method 1 and method 2
# [4] = VNN1-assay method 2: 0.1 nM Vanin-1, 20 min preincubation, 3 μM D-Pantethine, geometric mean if multiple measurements
# FLAG-tagged Vanin-1 (AA 22-493, T26I), sequence (O95497 22-493 T26I): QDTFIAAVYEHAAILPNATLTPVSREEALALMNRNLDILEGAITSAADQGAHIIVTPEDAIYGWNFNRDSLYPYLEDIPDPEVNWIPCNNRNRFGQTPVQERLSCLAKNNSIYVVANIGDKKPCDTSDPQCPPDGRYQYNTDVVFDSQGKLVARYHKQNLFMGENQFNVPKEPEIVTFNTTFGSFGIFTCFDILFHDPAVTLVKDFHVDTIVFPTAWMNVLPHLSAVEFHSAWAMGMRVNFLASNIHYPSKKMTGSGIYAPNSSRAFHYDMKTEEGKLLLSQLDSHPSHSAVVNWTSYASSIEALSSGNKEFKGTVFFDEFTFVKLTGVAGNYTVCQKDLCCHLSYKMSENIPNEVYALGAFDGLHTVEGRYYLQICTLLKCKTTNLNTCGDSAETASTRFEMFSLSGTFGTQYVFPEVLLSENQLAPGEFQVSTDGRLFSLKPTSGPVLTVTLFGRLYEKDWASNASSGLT
Compound,"IC50 [1, 2] [nM]",IC50 (human whole blood) [nM],"IC50 [1, 3] [nM]","IC50 (human whole blood; Homo sapiens, 0.5 h) [nM]","IC50 [1, 4] [nM]"
"O=C(c1cnc2c(c1)OC[C@H](c1ccccc1)N2)N1CCC(c2ccncc2)C1 (single isomer, unassigned) [Example 11]",19,3700,,,
"O=C(c1cnc2c(c1)OC[C@H](c1ccccc1)N2)N1CCC(c2ccncc2)C1 (single isomer, unassigned) [Example 12]",1.8,330,,,
"O=C(c1cnc2c(c1)OCC1(CC1)N2)N1CCC(c2ccncc2)C1 (single isomer, unassigned) [Example 20]",1.9,130,,,
"O=C(c1cnc2c(c1)OCC1(CC1)N2)N1CCC(c2ccncc2)C1 (single isomer, unassigned) [Example 22]",0.4,37,,,
CC[C@@H]1COc2cc(C(=O)N3CC[C@H](N(C)C(C)=O)C3)cnc2N1 [Example 1],,,3.3,20,
CC(=O)N(C)[C@H]1CCN(C(=O)c2cnc3c(c2)OC[C@@H](C(C)C)N3)C1 [Example 2],3.6,,,26,
CC[C@H]1COc2cc(C(=O)N3CC[C@H](N(C)C(C)=O)C3)cnc2N1 [Example 4],1.3,,,22,
CC[C@H]1COc2cc(C(=O)N3CCC(c4ccncc4)C3)cnc2N1 (some centres unmarked) [Example 5],,,3.1,76,
CC[C@@H]1COc2cc(C(=O)N3CCC(c4ccncc4)C3)cnc2N1 (some centres unmarked) [Example 6],8.9,,,99,
O=C(c1cnc2c(c1)OC[C@@H](c1ccccc1)N2)N1CCC(c2ccncc2)C1 (some centres unmarked) [Example 7],6200,,,,
CC(C)[C@@H]1COc2cc(C(=O)N3CCC(c4ccncc4)C3)cnc2N1 (some centres unmarked) [Example 8],17.2,,,,
CC(=O)N(C)[C@H]1CCN(C(=O)c2cnc3c(c2)OC[C@H](C(C)C)N3)C1 [Example 9],1.5,,,23,
CC(C)[C@H]1COc2cc(C(=O)N3CCC(c4ccncc4)C3)cnc2N1 (some centres unmarked) [Example 10],2.4,,,146,
CC(=O)N(C)[C@H]1CCN(C(=O)c2cnc3c(c2)OC[C@H](C)N3)C1 [Example 13],,,1.8,23,
CC(=O)N(C)[C@H]1CCN(C(=O)c2cnc3c(c2)OCC(C)(C)N3)C1 [Example 14],,,,12,
O=C(c1cnc2c(c1)OCC1(CC1)N2)N1CC[C@H](N2CCCC2=O)C1 [Example 15],,,,7.8,0.7
O=C(c1cnc2c(c1)OCC1(CC1)N2)N1CC[C@H](N2CCOC2=O)C1 [Example 16],,,,8.9,0.6
CN(C(=O)C1CC1)[C@H]1CCN(C(=O)c2cnc3c(c2)OCC2(CC2)N3)C1 [Example 17],,,,8.8,0.7
CN(C(=O)C1COC1)[C@H]1CCN(C(=O)c2cnc3c(c2)OCC2(CC2)N3)C1 [Example 18],,,,12,0.9
CN([C@H]1CCN(C(=O)c2cnc3c(c2)OCC2(CC2)N3)C1)S(=O)(=O)C1CC1 [Example 19],,,,39,2.3
CC(=O)N(C)[C@H]1CCN(C(=O)c2cnc3c(c2)OCC2(CC2)N3)C1 [Example 21],,,0.4,10,

Compound,"IC50 [1, 2] [nM]",IC50 (human whole blood) [nM],"IC50 [1, 3] [nM]","IC50 (human whole blood; Homo sapiens, 0.5 h) [nM]","IC50 [1, 4] [nM]"
CN1C(=O)CC[C@]12CCN(C(=O)c1cnc3c(c1)OCCC1(CC1)N3)C2 [Example 23],,,,50,8.1
CN1C(=O)CC[C@@]12CCN(C(=O)c1cnc3c(c1)OCCC1(CC1)N3)C2 [Example 24],,,,6.5,0.6
O=C(c1cnc2c(c1)OCCC1(CC1)N2)N1CC[C@H](N2CCCC2=O)C1 [Example 25],,,,3.1,0.1
O=C(c1cnc2c(c1)OCCC1(CC1)N2)N1CC[C@H](N2CCOC2=O)C1 [Example 26],,,,5.9,0.2
CN1C(=O)CCC12CCN(C(=O)c1cnc3c(c1)OCCC1(CC1)N3)C2 (centres unmarked) [Example 27],,,,11,1.09
C[C@@H]1COc2cc(C(=O)N3CCC(c4cccnc4)C3)cnc2N1 (some centres unmarked) [Example 28],3.8,,,168,
CC(=O)N(C)[C@H]1CCN(C(=O)c2cnc3c(c2)OC[C@@H](C)N3)C1 [Example 29],,,3.3,28,
CC(=O)N(C)[C@H]1CCN(C(=O)c2cnc3c(c2)OC[C@H](c2ccccc2)N3)C1 [Example 30],,,2.4,43,
CC(=O)N(C)[C@H]1CCN(C(=O)c2cnc3c(c2)OC[C@@H](c2ccccc2)N3)C1 [Example 31],,,1750,,
CC(=O)N(C)[C@H]1CCN(C(=O)c2cnc3c(c2)O[C@H](C)CN3)C1 [Example 32],,,,14,
C[C@@H]1CNc2ncc(C(=O)N3CCC(c4ccncc4)C3)cc2O1 (some centres unmarked) [Example 33],2.5,,,34,
C[C@H]1CNc2ncc(C(=O)N3CCC(c4ccncc4)C3)cc2O1 (some centres unmarked) [Example 34],,,3.5,44,
CC(=O)N(C)[C@H]1CCN(C(=O)c2cnc3c(c2)O[C@@H](C)CN3)C1 [Example 35],,,26.1,190,
CC(=O)N(C)[C@H]1CCN(C(=O)c2cnc3c(c2)OCCC2(CC2)N3)C1 [Example 37],,,0.2,6.3,
O=C(c1cnc2c(c1)OCCN2)N1CCC(c2ccncc2)C1 (centres unmarked) [Example 38],,,,210,
CC(=O)N(C)[C@H]1CCN(C(=O)c2cnc3c(c2)OCCN3)C1 [Example 39],,,,120,
C[C@H]1COc2cc(C(=O)N3CCC(c4ccncc4)C3)cnc2N1 (some centres unmarked) [Example 40],,,1.7,87,
CC(=O)N(C)[C@H]1CCN(C(=O)c2cnc3c(c2)O[C@H](CO)CN3)C1 [Example 41],,,,18,
CC(=O)N(C)[C@H]1CCN(C(=O)c2cnc3c(c2)OCC(C)(C)CN3)C1 [Example 42],,,1.1,16,
O=C(c1cnc2c(c1)O[C@H](CO)CN2)N1CCC(c2ccncc2)C1 (some centres unmarked) [Example 43],,,,66,
CC(=O)N(C)[C@H]1CCN(C(=O)c2cnc3c(c2)OCCCN3)C1 [Example 44],,,,23,
